Drawing on ChEMBL document CHEMBL1201862, “PubChem BioAssay data set” (2004), this text covers AC50, EC50 and IC50 for 4 molecules.

Experiment [1] can be described thus: P. falciparum Dd2 growth inhibitors, dose response, SYBR Green, dry powder samples, set 4 (AID 1159572). In kind it is functional, cell-based.
Experiment [2] can be described thus: ZM109 Env clade C HIV-1 fusion inhibitors, dose response, HeLa effector, CEM target cells, luciferase, cherry-pick (AID 652058). In kind it is functional, cell-based.
The next experiment relates to INS1. The experiment is described as follows: beta cell apoptosis inhibitors, cytokine rescue, dose response, luminescence, retest (AID 449756).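 Also: cell death triggered by IL-1 beta plus TNF-alpha plus IFN-gamma mixture; protective hits raise ATP signal compared with cytokine alone wells.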 In kind it is functional, cell-based. Particulars: Rattus norvegicus.
A short description of experiment [3]: CEM21 lymphoblast cell cytotoxicity, dose response, cytotoxicity control for viral fusion inhibitor project, CellTiter-Glo luminescence, cherry-picked (AID 652042).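 Also: potency for signal decrease meaning cytotoxicity.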 The experiment is classed as functional, cell-based. (ATP-based viability assays read luminescence as a measure of living cells.)
The nature of experiment [4]: cytotoxicity in KRAS-transformed pancreatic duct cells, primary screen, cell-based, fluorescence, HTS (AID 431).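 Also: cell line used: HPDE-C7K.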 The experiment is classed as functional. Particulars: Homo sapiens.
The target of experiment [5] is Sphingosine 1-phosphate receptor 2 (Homo sapiens, UniProt O95136). The experiment is described as follows: Dose Response Cell Based Assay for Antagonists of the S1P2 Receptor. [Related pubchem assays: 856, 736 ]. In kind it is functional.
Chain of Sphingosine 1-phosphate receptor 2 (O95136 whole entry, the tested form may be a part): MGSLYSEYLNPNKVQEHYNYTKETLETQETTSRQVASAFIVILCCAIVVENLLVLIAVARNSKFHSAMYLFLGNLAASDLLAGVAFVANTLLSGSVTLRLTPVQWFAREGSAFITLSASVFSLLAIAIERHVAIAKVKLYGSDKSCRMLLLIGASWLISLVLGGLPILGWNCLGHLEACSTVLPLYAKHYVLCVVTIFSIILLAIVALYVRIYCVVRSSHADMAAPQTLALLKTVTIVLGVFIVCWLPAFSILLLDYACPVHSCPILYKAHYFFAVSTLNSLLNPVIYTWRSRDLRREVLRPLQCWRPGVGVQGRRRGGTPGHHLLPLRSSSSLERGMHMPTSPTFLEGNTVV
Experiment [6] can be described thus: HIV Env cell-cell fusion inhibitors, dose response, HIV entry, plate reader, dry powder (AID 687023). In kind it is functional, cell-based.
Experiment [7] is described as follows: inhibitors of clade B AD8 Env fusion, dose response, cell-based, cherry-pick (AID 652062).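 Also: luciferase signal from cell-cell fusion driven by HIV-1 clade B AD8 Env; potency is for inhibitors of fusion seen as a drop in luminescence.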 In kind it is functional.
Experiment [8] can be described thus: CEM21 cell cytotoxicity, dose response, cytotoxicity control, plate reader, dry powder (AID 687026). In kind it is functional, cell-based.
A short description of experiment [9]: cytotoxicity in HPDE-C7 cells, cell-based, fluorescence, HTS (AID 430). In kind it is functional. Particulars: Homo sapiens.
Experiment [10] can be described thus: inhibitors of HIV Env-driven cell fusion, dose response, cherry-pick (AID 652057). In kind it is functional, cell-based.
The target of experiment [11] is T1, COUP transcription factor 2 (Homo sapiens, UniProt P24468).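 Also: HEK293 cells transiently cotransfected with COUP-TFII expression vector and reporter; luciferase reporter luminescence driven by COUP-TFII from the pX2-168 reporter plasmid.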
T1 sequence (P24468 whole entry): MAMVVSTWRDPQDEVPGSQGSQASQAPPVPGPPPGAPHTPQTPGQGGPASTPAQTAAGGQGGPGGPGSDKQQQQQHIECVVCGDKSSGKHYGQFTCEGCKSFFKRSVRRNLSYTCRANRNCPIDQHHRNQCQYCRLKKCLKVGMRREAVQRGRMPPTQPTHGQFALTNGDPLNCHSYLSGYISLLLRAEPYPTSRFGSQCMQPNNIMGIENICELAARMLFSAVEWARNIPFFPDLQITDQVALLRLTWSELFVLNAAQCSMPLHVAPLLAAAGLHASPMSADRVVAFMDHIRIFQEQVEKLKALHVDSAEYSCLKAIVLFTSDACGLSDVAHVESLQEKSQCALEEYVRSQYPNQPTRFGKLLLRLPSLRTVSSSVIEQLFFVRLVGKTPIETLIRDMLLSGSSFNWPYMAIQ
The experiment is described as follows: Luminescence-based cell-based high throughput dose response assay to identify inhibitors of COUP-TFII (NR2F2). The experiment is classed as functional.

Experiment [12] in a line: cytotoxicity toward Colo320 cells – cell-based, CellTiter-Glo luminescence, IC50, dose response (AID 1117334). In kind it is functional. Particulars: COLO 320.
Experiment [13] in a line: cytotoxicity toward HT-29 cells – cell-based, CellTiter-Glo luminescence, IC50, dose response (AID 1117330). The experiment is classed as functional.
Experiment [14] in a line: cytotoxicity toward HCT116 cells – cell-based, CellTiter-Glo luminescence, IC50, dose response (AID 1117332). The experiment is classed as functional. Particulars: HCT-116.
Experiment [15] in a line: Concentration-dependent survival of SW480 colon cancer line, luminescence detection with CellTiter-Glo, half-maximal inhibitory concentration (AID 1117338). The experiment is classed as functional.
Experiment [16] can be described thus: RKO cell viability reduction, dose response, CellTiter-Glo luminescence (AID 1117322). In kind it is functional.
Experiment [17] in a line: CellTiter-Glo luminescent dose response of DLD-1 viability loss (AID 1117352). In kind it is functional.
Experiment [18] is described as follows: SNU-C1 cell viability reduction, dose response, CellTiter-Glo luminescence (AID 1117323). In kind it is functional, cell-based.
Experiment [19] in a line: P. falciparum 3D7-ScDHODH growth inhibitors, dose response, SYBR Green, dry powder samples (AID 1159570).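 Also: parasite growth measured after 72 hours of compound exposure.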 In kind it is functional, cell-based.
Experiment [20] is described as follows: HepG2 cell cytotoxicity, dose response, cytotoxicity control, cherry-picked samples (AID 1159577). In kind it is functional, cell-based.
The nature of experiment [21]: P. falciparum ATP4 D1247Y mutant growth inhibitors, dose response, NITD609-resistant line, SYBR Green, dry powder (AID 1159571).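 Also: parasites synchronized at ring stage by sorbitol before testing.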 The experiment is classed as functional, cell-based.
A short description of experiment [22]: P. falciparum Dd2 growth inhibitors, dose response, SYBR Green, dry powder samples, set 9 (AID 1159568). In kind it is functional, cell-based.
Experiment [23] can be described thus: P. falciparum Dd2 growth inhibitors, dose response, SYBR Green, cherry-picked samples (AID 1159567). In kind it is functional, cell-based.
Experiment [24] in a line: Plasmodium falciparum Dd2 Sybr green parasite growth Measured in Cell-Based and Microorganism Combination System Using Plate Reader - 2153-01_Inhibitor_Dose_DryPowder_Activity_Set3. In kind it is functional.
The nature of experiment [25]: P. falciparum Dd2 growth inhibitors, dose response, SYBR Green, dry powder samples (AID 1159566).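 Also: potency for growth inhibition with lower SYBR green DNA signal.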 The experiment is classed as functional, cell-based.

“And” between values parts separate entries of the source, which are not always exact repeats. Equal entries are not always repeated. The source made the active and inactive calls.

Broadly, the AC50 is the concentration giving half of the maximal activity seen. A word on the EC50: it is the concentration needed to bring the measured effect to its halfway point. One may read the IC50 as the concentration needed to halve the response being measured.

Consider `COc1ccc2c3c([nH]c2c1)[C@H](CO)N(C(C)=O)CC31CCN(S(=O)(=O)c2cccs2)CC1`, for which the AC50 in experiment [1] was 8.2 µM (active).
For the molecule `COc1ccc2c(c1)[nH]c1c(N3CCN(Cc4ccc5c(c4)OCO5)CC3)ncnc12`, the AC50 in experiment [2] was 6.42 µM (active); in the experiment on INS1, 2.06 µM (active); in [3], 38 µM (active); in [6], 2.72 µM (active) and 5.39 µM (active); in experiment [7], 4.68 µM (active); in [8], 35.8 µM (active) and 32.4 µM (active). The AC50 in [10] was 3.89 µM (active). The values for the half-maximal effective concentration (EC50) in experiment [4] and in experiment [9] were 14.8 µM (active) and 16.7 µM (active), respectively. Besides, the figures for the IC50 in [5] and in experiment [11] were 4.01 µM (active) and 6.68 µM (active), respectively.
Turning to `CCCCCCOc1ccccc1C(N)=O` [EXALAMIDE], the IC50 is > 20 µM (inactive) in experiment [12]; > 20 µM (inactive) in experiment [13]; > 6.67 µM (inactive) in [14]; > 20 µM (inactive) in experiment [15]; > 6.67 µM (inactive) in experiment [16]; 8.67 µM (inactive) in experiment [17]. In addition, the IC50 in [18] was 9.36 µM (inactive).
On to `CCCNC(=O)N1[C@H](C#N)[C@H](c2ccc(-c3ccccc3F)cc2)[C@H]1CO`, for which the AC50 in experiment [19] is 14.9 µM (active); in [20] it was > 42 µM (inactive); in [21], 0.0114 µM (active); in experiment [22], 0.0988 µM (active); in experiment [23], < 0.35 µM (active); in [24] it was 0.0589 µM (active). Besides, the AC50 in experiment [25] is 0.00986 µM (active).
